Target: T1, β-secretase (BACE-1) (Homo sapiens, UniProt P56817)
T1 construct: gene BACE1
Test: BACE-1 FRET enzymatic assay
Assay type: biochemical

T1 sequence (P56817 46-457): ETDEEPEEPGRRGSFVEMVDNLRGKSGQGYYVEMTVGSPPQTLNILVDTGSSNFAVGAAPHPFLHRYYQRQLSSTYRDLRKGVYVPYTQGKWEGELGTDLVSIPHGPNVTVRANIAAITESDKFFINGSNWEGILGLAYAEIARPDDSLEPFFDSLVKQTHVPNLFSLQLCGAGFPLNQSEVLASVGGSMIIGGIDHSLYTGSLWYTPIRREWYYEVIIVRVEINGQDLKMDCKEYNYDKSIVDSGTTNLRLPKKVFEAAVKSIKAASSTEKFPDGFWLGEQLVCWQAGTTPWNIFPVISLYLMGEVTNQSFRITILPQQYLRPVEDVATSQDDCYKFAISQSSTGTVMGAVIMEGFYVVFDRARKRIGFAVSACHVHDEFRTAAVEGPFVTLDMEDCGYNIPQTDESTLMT

| IC50 [µM] | Compound |
| --- | --- |
| 85.3 | O=C(NCc1ccccc1)[C@@H](O)[C@H](O)C(=O)NCc1ccccc1 [compound 2, 276065] |
| 51.6 | N[C@@H](CCCCNC(=O)OCc1ccccc1)C(=O)OCc1ccccc1 [compound 1, S450588] |
